Measurements reported in ChEMBL document CHEMBL5360587, “Differentiation-Promoting Effects of Okeaniamides A and B from an Okeania sp. Marine Cyanobacterium on Preadipocytes” (J Nat Prod, 2023).

Columns and labels:
3T3-L1 [1] = experiment: Cytotoxicity against mouse 3T3-L1 cells assessed as reduction in cell viability at 10 uM incubated for 3 days by MTT assay; type: toxicity, cell-based; conditions: 3t3-l1, 72 h, time 3 day
3T3-L1 [2] = experiment: Induction of adipogenesis in mouse 3T3-L1 cells assessed as increase in lipid droplets formation incubated with media replacement for every 3 days and measured at day 9 in presence of insulin by Oil Red O staining based analysis; type: functional, cell-based; conditions: dose 1-10 µM, time 9.0 day
3T3-L1 [3] = experiment: Induction of adipogenesis in mouse 3T3-L1 cells assessed as fold increase in OD value at 10 uM incubated with media replacement for every 3 days and measured for day 9 in presence of insulin by Oil Red O staining based analysis; type: functional; conditions: time 9 day

Row | Compound | Activity (3T3-L1 [1]) | Activity (3T3-L1 [2]) | fold change (FC) (3T3-L1 [3])
1 | CCCCCCCCC/C(C)=C/[C@@H](C/C=C/CCC(=O)N(C)[C@@H](COC)C(=O)N1CCC[C@H]1C(C)=O)OC | Non-Toxic | Dose-Dependent Effect | 2.3
2 | CCCCCC/C=C/C/C(C)=C/[C@@H](C/C=C/CCC(=O)N(C)[C@@H](COC)C(=O)N1CCC[C@H]1C(=O)CC)OC | Non-Toxic | Dose-Dependent Effect | 2.1
